Results on 20 compounds are retold here after patent US12622909B2, “Allosteric EGFR inhibitors and methods of use thereof” (Dana-Farber Cancer Institute, Inc., priority 2019, dated 2026).

Structures are written as SMILES. pIC50: −log10 of the molar value. Where a name gives a salt, the structure may show the parent alone. Read-outs that look alike come from different tables or passages of the source.

For one assay, the target named is EGFR L858R/T790M (Homo sapiens, UniProt P00533, L858R/T790M). Kind of assay: HTRF-based EGFR biochemical assay (L858R/T790M). The settings on record: 100 μM ATP, enzyme 0.02 nM. The gist of the method:
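Mutant EGFR preincubated 30 min with compound at room temperature, then reacted 20 min with 1 μM biotinylated tyrosine kinase peptide and 100 μM ATP in 50 mM HEPES pH 7.0, 5 mM MgCl2, 1 mM MnCl2, 0.01% BSA, 2 mM TCEP, 0.1 mM NaVO4. Phosphorylation read by HTRF.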

The next assay concerns the target EGFR L858R (Homo sapiens, UniProt P00533, L858R). Put plainly: HTRF-based EGFR biochemical assay (L858R). To be noted: 100 μM ATP, enzyme 0.1 nM. The gist of the method:
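Reaction started with 100 μM ATP (final) for 20 min, then quenched with EDTA. Phosphorylation detected by HTRF (Eu-cryptate anti-phosphotyrosine/Streptavidin-XL665, 665/620 nm).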
On the technique in general: In TR-FRET formats the signal depends on donor and acceptor labels being close together.

Assay [1] has as its target EGFR L858R/T790M mutant Ba/F3 cells (Homo sapiens, UniProt P00533, T790M/L858R, cells depend on it). Kind of assay: Ba/F3 cell proliferation (Cell Titer Glo). The class given is cell-based, murine. The settings on record: 72 hours. Put shortly: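 Ba/F3 cells retrovirally transduced with the EGFR construct and puromycin-selected (2 μg/ml), grown in RPMI 1640 with 10% FBS. Viability read by Cell Titer Glo luminescence (ATP content), triplicate points, experiments repeated at least three times. Curves fitted by non-linear sigmoidal dose-response regression.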
(In general: Cellular ATP, detected with luciferase, serves as a proxy for viable cell number.)

The mark [2] stands for this setting: in combination with 1 μg/ml cetuximab, read-out: Cell IC50 BaF3 L858R/T790M compound + cetuximab.
Setting [3] is: single agent, read-out: Cell IC50 EGFR BaF3 L858R/T790M.

Chain of EGFR L858R/T790M (P00533 25-1210 T790M/L858R): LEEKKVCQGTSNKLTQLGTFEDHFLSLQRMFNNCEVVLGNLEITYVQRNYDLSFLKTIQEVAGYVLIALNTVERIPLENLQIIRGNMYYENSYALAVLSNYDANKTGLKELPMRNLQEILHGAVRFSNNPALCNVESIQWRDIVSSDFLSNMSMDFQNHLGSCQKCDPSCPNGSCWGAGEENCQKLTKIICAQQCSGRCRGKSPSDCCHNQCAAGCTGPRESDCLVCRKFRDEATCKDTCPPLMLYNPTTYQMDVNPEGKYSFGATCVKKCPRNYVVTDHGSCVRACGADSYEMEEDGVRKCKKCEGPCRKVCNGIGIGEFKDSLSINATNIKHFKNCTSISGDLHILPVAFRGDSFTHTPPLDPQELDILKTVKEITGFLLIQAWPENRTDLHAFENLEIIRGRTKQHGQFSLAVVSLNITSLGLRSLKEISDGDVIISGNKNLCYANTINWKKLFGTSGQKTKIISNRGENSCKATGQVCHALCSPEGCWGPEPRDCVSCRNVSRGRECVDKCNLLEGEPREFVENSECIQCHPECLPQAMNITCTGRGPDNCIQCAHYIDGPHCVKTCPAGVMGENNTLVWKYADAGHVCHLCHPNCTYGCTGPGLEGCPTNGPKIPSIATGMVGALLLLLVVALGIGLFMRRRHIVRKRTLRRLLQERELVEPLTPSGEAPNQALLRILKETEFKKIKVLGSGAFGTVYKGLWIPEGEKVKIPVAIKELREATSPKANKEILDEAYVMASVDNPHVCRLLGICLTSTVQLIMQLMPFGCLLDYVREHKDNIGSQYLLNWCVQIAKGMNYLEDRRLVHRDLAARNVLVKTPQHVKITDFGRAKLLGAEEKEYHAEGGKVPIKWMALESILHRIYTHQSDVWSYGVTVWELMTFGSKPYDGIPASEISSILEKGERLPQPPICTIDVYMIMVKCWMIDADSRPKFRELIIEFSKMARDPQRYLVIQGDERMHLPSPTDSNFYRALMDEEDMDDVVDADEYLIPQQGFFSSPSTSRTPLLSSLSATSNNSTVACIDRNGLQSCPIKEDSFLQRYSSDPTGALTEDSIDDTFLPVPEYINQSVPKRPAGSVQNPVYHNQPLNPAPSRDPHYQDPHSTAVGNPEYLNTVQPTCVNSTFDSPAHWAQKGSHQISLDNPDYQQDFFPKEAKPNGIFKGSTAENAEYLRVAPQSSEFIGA
Chain of EGFR L858R (P00533 25-1210 L858R): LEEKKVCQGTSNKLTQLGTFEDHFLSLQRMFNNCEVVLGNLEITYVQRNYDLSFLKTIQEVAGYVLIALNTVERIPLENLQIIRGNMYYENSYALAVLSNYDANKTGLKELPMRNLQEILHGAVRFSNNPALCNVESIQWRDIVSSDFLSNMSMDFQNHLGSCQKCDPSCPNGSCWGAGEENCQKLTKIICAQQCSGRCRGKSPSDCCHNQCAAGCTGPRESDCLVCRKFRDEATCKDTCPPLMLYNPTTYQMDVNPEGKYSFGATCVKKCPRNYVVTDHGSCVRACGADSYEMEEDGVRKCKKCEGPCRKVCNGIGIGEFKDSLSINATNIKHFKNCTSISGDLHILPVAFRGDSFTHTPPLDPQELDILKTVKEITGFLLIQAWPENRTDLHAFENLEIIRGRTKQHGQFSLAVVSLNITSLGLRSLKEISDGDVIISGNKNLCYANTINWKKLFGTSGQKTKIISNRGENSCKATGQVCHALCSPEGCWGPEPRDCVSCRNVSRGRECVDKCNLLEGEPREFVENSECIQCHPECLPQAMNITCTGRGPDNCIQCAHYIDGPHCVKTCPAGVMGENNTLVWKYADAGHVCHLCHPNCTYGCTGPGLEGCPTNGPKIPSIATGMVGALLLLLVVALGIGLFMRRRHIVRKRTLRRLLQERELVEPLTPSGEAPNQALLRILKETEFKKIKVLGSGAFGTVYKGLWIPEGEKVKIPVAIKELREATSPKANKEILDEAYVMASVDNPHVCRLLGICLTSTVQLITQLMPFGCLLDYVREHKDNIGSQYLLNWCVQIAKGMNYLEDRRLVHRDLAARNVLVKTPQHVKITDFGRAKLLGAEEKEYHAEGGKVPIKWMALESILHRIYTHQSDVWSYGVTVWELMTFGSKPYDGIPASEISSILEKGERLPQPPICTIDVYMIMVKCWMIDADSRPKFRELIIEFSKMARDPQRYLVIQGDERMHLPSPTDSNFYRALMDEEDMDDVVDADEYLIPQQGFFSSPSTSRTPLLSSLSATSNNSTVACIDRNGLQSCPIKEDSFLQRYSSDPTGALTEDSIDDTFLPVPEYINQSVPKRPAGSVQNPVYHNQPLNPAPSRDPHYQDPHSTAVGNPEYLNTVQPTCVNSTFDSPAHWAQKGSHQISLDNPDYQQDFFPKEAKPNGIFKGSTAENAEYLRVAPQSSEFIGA
Chain of EGFR L858R/T790M mutant Ba/F3 cells (P00533 whole entry T790M/L858R): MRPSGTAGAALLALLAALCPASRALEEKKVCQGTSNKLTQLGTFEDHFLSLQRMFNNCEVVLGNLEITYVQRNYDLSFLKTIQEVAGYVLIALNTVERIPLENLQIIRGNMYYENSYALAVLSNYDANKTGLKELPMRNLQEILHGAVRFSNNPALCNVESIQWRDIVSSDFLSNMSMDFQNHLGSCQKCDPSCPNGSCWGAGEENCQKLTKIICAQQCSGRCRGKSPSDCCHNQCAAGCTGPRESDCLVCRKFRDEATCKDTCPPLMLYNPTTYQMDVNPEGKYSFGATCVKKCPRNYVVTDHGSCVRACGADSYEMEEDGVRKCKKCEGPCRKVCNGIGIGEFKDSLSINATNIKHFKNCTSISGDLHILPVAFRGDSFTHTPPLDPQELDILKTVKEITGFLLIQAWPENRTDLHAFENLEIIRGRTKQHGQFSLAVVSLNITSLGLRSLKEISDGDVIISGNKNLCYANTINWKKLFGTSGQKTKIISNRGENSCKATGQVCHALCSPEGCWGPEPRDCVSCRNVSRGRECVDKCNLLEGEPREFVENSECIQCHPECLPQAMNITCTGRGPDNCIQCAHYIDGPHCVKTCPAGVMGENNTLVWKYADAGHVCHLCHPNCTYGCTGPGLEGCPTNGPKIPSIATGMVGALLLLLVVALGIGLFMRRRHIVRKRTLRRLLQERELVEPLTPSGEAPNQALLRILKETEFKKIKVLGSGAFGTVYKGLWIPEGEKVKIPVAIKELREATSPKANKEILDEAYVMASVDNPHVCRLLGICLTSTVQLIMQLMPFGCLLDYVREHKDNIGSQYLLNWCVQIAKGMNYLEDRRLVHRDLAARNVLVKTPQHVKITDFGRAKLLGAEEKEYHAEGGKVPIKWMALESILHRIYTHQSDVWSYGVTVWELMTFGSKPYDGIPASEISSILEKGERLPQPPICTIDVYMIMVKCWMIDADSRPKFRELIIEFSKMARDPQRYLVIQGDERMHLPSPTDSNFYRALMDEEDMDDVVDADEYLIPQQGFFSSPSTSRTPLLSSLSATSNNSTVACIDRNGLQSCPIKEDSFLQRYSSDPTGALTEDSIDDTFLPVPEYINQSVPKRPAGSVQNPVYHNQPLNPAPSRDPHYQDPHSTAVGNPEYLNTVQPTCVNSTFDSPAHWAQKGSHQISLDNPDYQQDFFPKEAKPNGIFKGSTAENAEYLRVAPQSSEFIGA

In general, pIC50 refers to −log10 of the IC50, conventionally taken in molar units. A higher pIC50 goes with a small IC50. Regarding `CN1CCN(c2ccc(-c3ccc4ncn(C(C(=O)Nc5nccs5)c5cccnc5)c(=O)c4c3)cc2)CC1` (centres unmarked) [Compound 064, 2-(6-(4-(4-Methylpiperazin-1-yl)-phenyl)-4-oxoquinazolin-3(4H)-yl)-2-(pyridin-3-yl)-N-(thiazol-2-yl)-acetamide], the pIC50 is 8.30 at EGFR L858R/T790M and 7.11 against EGFR L858R. In addition, the results for the GI50 in assay [1] (setting [2]) and in assay [1] (setting [3]) were 0.49 µM and 6.15 µM, respectively.
For `CN1CCC(c2ccc(-c3ccc4ncn(C(C(=O)Nc5nccs5)c5cccnc5)c(=O)c4c3)cc2)CC1` (centres unmarked) [Compound 065, 2-(6-(4-(1-Methylpiperidin-4-yl)-phenyl)-4-oxoquinazolin-3(4H)-yl)-2-(pyridin-3-yl)-N-(thiazol-2-yl)-acetamide], in that order: 8.70, 7.54, 0.38 µM and 7.81 µM.
The like results for `CN1CCC(c2ccc(-c3ccc4ncn(C(C(=O)Nc5nccs5)c5ccccc5F)c(=O)c4c3)cc2)CC1` (centres unmarked) [Compound 066, 2-(2-Fluorophenyl)-2-(6-(4-(1-methylpiperidin-4-yl)phenyl)-4-oxo-quinazolin-3(4H)-yl)-N-(thiazol-2-yl)-acetamide] were, in that order, 9.70, 8.70, 0.02 µM and 1.88 µM.
For `CN1CCN(c2ccc(-c3ccc4ncn(C(C(=O)Nc5nccs5)c5ccccc5F)c(=O)c4c3)cc2)CC1` (centres unmarked) [Compound 067, 2-(2-fluorophenyl)-2-(6-(4-(4-methylpiperazin-1-yl)phenyl)-4-oxo-quinazolin-3(4H)-yl)-N-(thiazol-2-yl)-acetamide], in that order: 9.00, 7.89, 0.041 µM and 3.96 µM.
Consider `CN1CCC(c2ccc(-c3ccc4ncn(C(C(=O)Nc5nccs5)c5ccccn5)c(=O)c4c3F)cc2)CC1` (centres unmarked) [Compound 068, 2-(5-Fluoro-6-(4-(1-methylpiperidin-4-yl)phenyl)-4-oxoquinazolin-3(4H)-yl)-2-(pyridin-2-yl)-N-(thiazol-2-yl)-acetamide], for which the values for the pIC50 against EGFR L858R/T790M and against EGFR L858R were 9.15 and 8.30, respectively. Also, the GI50 in assay [1] (setting [2]) is 0.018 µM; in assay [1] (setting [3]) it was 1.56 µM.
For `CN1CCC(c2ccc(-c3ccc4ncn(C(C(=O)Nc5nccs5)c5cccc(F)c5)c(=O)c4n3)cc2)CC1` (centres unmarked) [Compound 069, 2-(3-Fluorophenyl)-2-(6-(4-(1-methylpiperidin-4-yl)phenyl)-4-oxo-pyrido[3,2-d]pyrimidin-3(4H)-yl)-N-(thiazol-2-yl)acetamide], in that order: 9.30, 8.15, 0.028 µM and 2.81 µM.
For `CN1CCC(c2ccc(-c3ccc4ncn(C(C(=O)Nc5nccs5)c5cccc(F)c5)c(=O)c4c3F)cc2)CC1` (centres unmarked) [Compound 070, 2-(5-Fluoro-6-(4-(1-methylpiperidin-4-yl)phenyl)-4-oxoquinazolin-3-(4H)-yl)-2-(3-fluorophenyl)-N-(thiazol-2-yl)acetamide], the results for the negative-log IC50 (pIC50) at EGFR L858R/T790M and against EGFR L858R were 9.70 and 9.00, respectively. Also, the GI50 in assay [1] (setting [2]) was 0.005 µM; in assay [1] (setting [3]), 0.55 µM.
For `CN1CCN(c2ccc(-c3ccc4ncn(C(C(=O)Nc5nccs5)c5ccccc5)c(=O)c4c3F)cc2)CC1` (centres unmarked) [Compound 071, 2-(5-Fluoro-6-(4-(4-methyl-piperazin-1-yl)phenyl)-4-oxo-quinazolin-3(4H)-yl)-2-phenyl-N-(thiazol-2-yl)acetamide], in that order: 9.15, 8.30, 0.02 µM and 2.37 µM.
The like results for `CN1CCN(c2ccc(-c3ccc4ncn(C(C(=O)Nc5nccs5)c5ccccc5)c(=O)c4n3)cc2)CC1` (centres unmarked) [Compound 072, 2-(6-(4-(4-Methylpiperazin-1-yl)-phenyl)-4-oxopyrido[3,2-d]-pyrimidin-3(4H)-yl)-2-phenyl-N-(thiazol-2-yl)acetamide] were, in that order, 9.00, 7.92, 0.055 µM and 1.6 µM.
For `CN1CCC(c2ccc(-c3ccc4ncn(C(C(=O)Nc5nccs5)c5ccccc5)c(=O)c4n3)cc2)CC1` (centres unmarked) [Compound 073, 2-(6-(4-(1-Methylpiperidin-4-yl)-phenyl)-4-oxopyrido[3,2-d]-pyrimidin-3(4H)-yl)-2-phenyl-N-(thiazol-2-yl)acetamide], in that order: 9.22, 8.15, 0.015 µM and 1.94 µM.
Turning to `CN1CCC(c2ccc(-c3ccc4ncn(C(C(=O)Nc5ccccn5)c5cccc(F)c5)c(=O)c4c3F)cc2)CC1` (centres unmarked) [Compound 074, 2-(5-Fluoro-6-(4-(1-methylpiperidin-4-yl)phenyl)-4-oxoquinazolin-3-(4H)-yl)-2-(3-fluorophenyl)-N-(pyridin-2-yl)acetamide], the pIC50 against EGFR L858R/T790M was 9.22; on EGFR L858R, 8.22. For the same compound, the figures for the GI50 in assay [1] (setting [2]) and in assay [1] (setting [3]) were 0.022 µM and 2.35 µM, respectively.
As for `CN1CCC(c2ccc(-c3ccc4ncn(C(C(=O)Nc5nccs5)c5ccccc5F)c(=O)c4c3F)cc2)CC1` (centres unmarked) [Compound 075, 2-(5-Fluoro-6-(4-(1-methylpiperidin-4-yl)phenyl)-4-oxoquinazolin-3-(4H)-yl)-2-(2-fluorophenyl)-N-(thiazol-2-yl)acetamide], the pIC50 against EGFR L858R/T790M is 10.00; against EGFR L858R, 9.00. For the same compound, the GI50 in assay [1] (setting [2]) came to 0.007 µM; in assay [1] (setting [3]), 1.03 µM.
Regarding `CN1CCN(c2ccc(-c3ccc4ncn(C(C(=O)Nc5nccs5)c5ccccc5F)c(=O)c4c3F)cc2)CC1` (centres unmarked) [Compound 076, 2-(5-Fluoro-6-(4-(4-methyl-piperazin-1-yl)phenyl)-4-oxo-quinazolin-3(4H)-yl)-2-(2-fluoro-phenyl)-N-(thiazol-2-yl)acetamide], the pIC50 at EGFR L858R/T790M was 9.15; against EGFR L858R, 8.10. Moreover, the GI50 in assay [1] (setting [2]) came to 0.044 µM; in assay [1] (setting [3]) it was 3.36 µM.
Regarding `COc1cccc(F)c1C(C(=O)Nc1nccs1)n1cnc2ccc(-c3ccc(N4CCN(C)CC4)cc3)cc2c1=O` (centres unmarked) [Compound 077, 2-(2-Fluoro-6-methoxyphenyl)-2-(6-(4-(4-methylpiperazin-1-yl)phenyl)-4-exoquinazolin-3(4H)-yl)-N-(thiazol-2-yl)acetamide], the pIC50 at EGFR L858R/T790M was 7.77; on EGFR L858R, 7.46. For the same compound, the GI50 in assay [1] (setting [2]) amounted to 2.1 µM; in assay [1] (setting [3]), 6.46 µM.
For `COc1cccc(F)c1C(C(=O)Nc1nccs1)n1cnc2ccc(-c3ccc(C4CCN(C)CC4)cc3)cc2c1=O` (centres unmarked) [Compound 078], in that order: 9.00, 8.10, 0.62 µM and 4.2 µM.
In the case of `CN1CCC(c2ccc(-c3ccc4ncn(C(C(=O)Nc5ccccn5)c5cc(F)ccc5O)c(=O)c4c3)cc2)CC1` (centres unmarked) [Compound 082, 2-(5-Fluoro-2-hydroxyphenyl)-2-(6-(4-(1-methylpiperidin-4-yl)phenyl)-4-oxoquinazolin-3(4H)-yl)-N-(pyridin-2-yl)acetamide; hydrochloride], the results for the pIC50 against EGFR L858R/T790M and on EGFR L858R were 9.70 and 9.00, respectively. Besides, the results for the GI50 in assay [1] (setting [2]) and in assay [1] (setting [3]) were 0.002 µM and 0.23 µM, respectively.
With `CN1CCC(c2ccc(-c3ccc4ncn(C(C(=O)Nc5nccs5)c5cc(F)ccc5O)c(=O)c4c3F)cc2)CC1` (centres unmarked) [Compound 083, 2-(5-Fluoro-2-hydroxyphenyl)-2-(5-fluoro-6-(4-(1-methylpiperidin-4-yl)phenyl)-4-oxoquinazolin-3(4H)-yl)-N-(thiazol-2-yl)acetamide], the pIC50 is 10.00 at EGFR L858R/T790M and 9.70 at EGFR L858R. In addition, the GI50 in assay [1] (setting [2]) came out at 0.009 µM; in assay [1] (setting [3]), 0.04 µM.
Regarding `CN1CCC(c2ccc(-c3ccc4ncn(C(C(=O)Nc5nccs5)c5cc(F)ccc5O)c(=O)c4n3)cc2)CC1` (centres unmarked) [Compound 084, 2-(5-Fluoro-2-hydroxyphenyl)-2-(6-(4-(1-methylpiperidin-4-yl)phenyl)-4-oxopyrido[3,2-d]pyrimidin-3(4H)-yl)-N-(thiazol-2-yl)acetamide], the pIC50 at EGFR L858R/T790M is 10.00; against EGFR L858R it was 9.40. The GI50 in assay [1] (setting [2]) was found to be 0.048 µM; in assay [1] (setting [3]) it was 0.86 µM.
The like results for `CN1CCN(c2ccc(-c3ccc4ncn(C(C(=O)Nc5nccs5)c5c(O)cccc5F)c(=O)c4c3)cc2)CC1` (centres unmarked) [Compound 085, 2-(2-Fluoro-6-hydroxyphenyl)-2-(6-(4-(4-methylpiperazin-1-yl)phenyl)-4-oxoquinazolin-3(4H)-yl)-N-(thiazol-2-yl)acetamide] were, in that order, 8.52, 8.22, 0.066 µM and 5.77 µM.
`CN1CCC(c2ccc(-c3ccc4ncn(C(C(=O)Nc5nccs5)c5c(O)cccc5F)c(=O)c4c3)cc2)CC1` (centres unmarked) [Compound 086, 2-(2-Fluoro-6-hydroxyphenyl)-2-(6-(4-(1-methylpiperidin-4-yl)phenyl)-4-oxoquinazolin-3(4H)-yl)-N-(thiazol-2-yl)acetamide]: the figures for the pIC50 against EGFR L858R/T790M and against EGFR L858R were 9.40 and 8.70, respectively. The figures for the GI50 in assay [1] (setting [2]) and in assay [1] (setting [3]) were 0.033 µM and 3.16 µM, respectively.
